Laboratory results as given in paper PMC12356143 (RSC Medicinal Chemistry, 2025).
Values joined by “and” are separate entries in the source; they are usually repeats but may differ in a detail not shown here. Identical values can stand only once.

Tests used:
M^pro L50F/E166A/L167F = M^pro L50F/E166A/L167F (Severe acute respiratory syndrome coronavirus 2, UniProt P0DTD1, E3429A/L3313F/L3430F); conditions: for K M / k cat: pH 7.6
[1] = target: SARS-CoV-2 M^pro L50F/E166A/L167F (Severe acute respiratory syndrome coronavirus 2, UniProt P0DTD1, E3429A/L3313F/L3430F); format: biochemical

Compound	Km (M^pro L50F/E166A/L167F)	K M (M^pro L50F/E166A/L167F)	k cat (M^pro L50F/E166A/L167F)	inhibition of L50F/E166A/L167F, result in words [1]	also measured
2-Abz-SVTLQ↓SGY^(NO2)R-OH	320 µM	320 µM	0.26 s⁻¹ and 0.26 ± 0.05 s⁻¹	–	lower catalytic efficiency of the M^pro triple mutant compared to the WT M^pro (M^pro L50F/E166A/L167F): ~35 times
COc1cccc2[nH]c(C(=O)N3C[C@H](C(F)(F)F)C[C@H]3C(=O)N[C@H](C#N)C[C@@H]3CCNC3=O)cc12 [compound 1]	–	–	–	inactive	–
2-Abz-KTSAVLQ↓SGY^(NO2)RKME-OH	250 µM	250 µM	0.19 ± 0.04 s⁻¹	–	–
O=C(NC(Cc1ccccc1)C(=O)NC(CC1CCNC1=O)C(O)S(=O)(=O)O)OCc1cccc(F)c1 (centres unmarked) [compound 3]	–	–	–	inactive	–
CC(C)C[C@H](NC(=O)OCc1cccc(F)c1)C(=O)N[C@@H](Cc1cscn1)C(O)S(=O)(=O)O (some centres unmarked) [compound 2]	–	–	–	does not significantly alter binding potency	–
COc1cccc2[nH]c(C(=O)NC(CC3CC3)C(=O)NC(CC3CCNC3=O)C(O)S(=O)(=O)O)cc12 (centres unmarked) [compound 4]	–	–	–	–	improvement in inhibition compared to nirmatrelvir [1]: approximately 30 fold
